The values below come from US10213436B2, “Methods of treating cancer using aurora kinase inhibitors” (Millennium Pharmaceuticals, Inc., priority 2012, dated 2019).

One data set has as its system NCI-H69. Description: NCI-H69 small cell lung cancer xenograft model.
Another data set relates to NCI-H82. In words: NCI-H82 small cell lung cancer xenograft model.
A short description of data set [1]: Single agent maximum tolerated dose in mice.
A further data set concerns cells. The following applies: cells treated with MLN8054; cited from earlier work.
The conditions of data set [2]: mouse, in vivo.

Structures are written as SMILES. Where two headings read alike, the source gives them in different places.

Procedure for NCI-H69: Procedure. […] Treatments began when tumors reached approximately 200 mm^3 following subcutaneous tumor implantation with NCI-H69 tumor fragments for all groups containing 10 female immunocompromised nu/nu mice per group. MLN8237 was tested at a dose of 20 mg/kg administered PO on a QIDx21-Q8Hx2 schedule and at doses of 20 and 10 mg/kg on a QIDx21 schedule. Paclitaxel was tested at doses of 30 and 15 mg/kg administered IV on a Q7Dx3 schedule. Each paclitaxel dose was combined with each MLN8237 dose on the QDx21 treatment schedule. In the combination treatment groups MLN8237 was administered first to the animals, followed immediately by the administration of paclitaxel. One group served as a vehicle-treated control group receiving PO treatment with the MLN8237 vehicle on a QIDx21 schedule.

Consider `CC(=O)O[C@H]1C(=O)[C@@]2(C)[C@H]([C@H](OC(=O)c3ccccc3)[C@]3(O)C[C@H](OC(=O)[C@H](O)[C@@H](NC(=O)c4ccccc4)c4ccccc4)C(C)=C1C3(C)C)[C@]1(OC(C)=O)CO[C@@H]1C[C@@H]2O` [paclitaxel], for which the antitumor activity entry with NCI-H69 (single agent paclitaxel 30 mg/kg (maximum tolerated dose)) is recorded as “sustained cures”; in the data set on NCI-H82 (single agent paclitaxel 15 mg/kg QW), “no antitumor activity”. For the same compound, the “single agent maximum tolerated dose in mice” value in data set [1] is given as 30 mg/kg QD.

Regarding `O=C(O)c1ccc(Nc2ncc3c(n2)-c2ccc(Cl)cc2C(c2c(F)cccc2F)=NC3)cc1` [MLN8054], in the data set on cells, the “cell fate after repeated defective mitotic divisions” value is recorded as “undergo senescence” and the “chromosome content of treated cells” value is listed as “develop aneuploidy that increases over time”.

As to `CC[C@@]1(O)C(=O)OCc2c1cc1n(c2=O)Cc2cc3c(CN(C)C)c(O)ccc3nc2-1` [topotecan], in data set [1] (IV), the “single agent maximum tolerated dose” value was 1.5 mg/kg Q5D.

As for `COc1cc(Nc2ncc3c(n2)-c2ccc(Cl)cc2C(c2c(F)cccc2OC)=NC3)ccc1C(=O)[O-].O.[Na+]` [alisertib, sodium 4-{[9-chloro-7-(2-fluoro-6-methoxyphenyl)-5H-pyrimido[5,4-d][2]benzazepin-2-yl]amino}-2-methoxybenzoate monohydrate], the antitumor activity result was “prolonged regressions” in the data set on NCI-H69 (single agent alisertib 20 mg/kg BID (maximum tolerated dose)) and “no antitumor activity” in the data set with NCI-H82 (single agent alisertib 10 mg/kg QD). The “single agent maximum tolerated dose in mice” value in data set [2] is 20 mg/kg BID.
